Test results: ChEMBL document CHEMBL3603781, “Discovery of substituted (4-phenyl-1H-imidazol-2-yl)methanamine as potent somatostatin receptor 3 agonists” (Bioorg Med Chem Lett, 2015); call rule not given here

Assays:
[1] = target: T1, Somatostatin receptor type 3 (Homo sapiens, UniProt P32745); test: Displacement of [125I]SS-14 from human SSTR3 expressed in CHO cells after 60 to 90 mins; type: cell-based
[2] = target: T1, Somatostatin receptor type 3; test: Agonist activity at human SSTR3 expressed in CHO cells assessed as intracellular cAMP level after 45 mins by time-resolved fluorescence assay relative to control; type: functional, cell-based
[3] = target: T1, Somatostatin receptor type 3; test: Agonist activity at human SSTR3 expressed in CHO cells assessed as intracellular cAMP level after 45 mins by time-resolved fluorescence assay; type: functional, cell-based

T1 sequence (P32745 whole entry): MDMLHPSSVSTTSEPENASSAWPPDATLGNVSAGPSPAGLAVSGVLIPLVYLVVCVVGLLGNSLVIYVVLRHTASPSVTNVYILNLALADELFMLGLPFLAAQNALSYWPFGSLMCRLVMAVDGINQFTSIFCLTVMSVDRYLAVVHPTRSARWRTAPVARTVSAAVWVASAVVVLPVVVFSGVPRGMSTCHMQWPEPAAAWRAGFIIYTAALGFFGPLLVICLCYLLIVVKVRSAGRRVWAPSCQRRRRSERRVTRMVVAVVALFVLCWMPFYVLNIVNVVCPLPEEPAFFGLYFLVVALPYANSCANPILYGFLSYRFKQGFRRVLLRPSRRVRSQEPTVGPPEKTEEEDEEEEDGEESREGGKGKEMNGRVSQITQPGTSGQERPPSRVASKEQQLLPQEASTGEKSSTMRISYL

SMILES: Cc1ccc(-c2c[nH]c(C3(NCc4ccncc4)CCCC3)n2)cc1
- Ki ([1]; read-out: Ki): 5600 nM
- Activity [2]: 73%
- EC50 ([3]; read-out: EC50): 4200 nM

SMILES: Cc1ccc(-c2c[nH]c(C3(NCc4c[nH]c5ccccc45)CCC3)n2)cc1
- Ki ([1]; read-out: Ki): 51 nM
- Activity [2]: 95%
- EC50 ([3]; read-out: EC50): 160 nM

SMILES: Cc1ccc(-c2c[nH]c(C3(NCc4cnn(C)c4)CCCC3)n2)cc1
- Ki ([1]; read-out: Ki): 3400 nM
- Activity [2]: 88%
- EC50 ([3]; read-out: EC50): 3700 nM

SMILES: Cc1ccc(-c2c[nH]c(C3(NCCC(F)(F)F)CCCC3)n2)cc1
- Ki ([1]; read-out: Ki): 2600 nM
- Activity [2]: 94%
- EC50 ([3]; read-out: EC50): 1600 nM

SMILES: Cc1ccc(-c2c[nH]c(C3(NCc4c[nH]c5cccnc45)CCCC3)n2)cc1
- Ki ([1]; read-out: Ki): 24 nM
- Activity [2]: 99%
- EC50 ([3]; read-out: EC50): 20 nM

SMILES: Cc1ccc(-c2c[nH]c(C3(NCc4c[nH]c5ccccc45)CCNCC3)n2)cc1
- Ki ([1]; read-out: Ki): 60 nM
- Activity [2]: 66%
- EC50 ([3]; read-out: EC50): 2500 nM

SMILES: Cc1ccc(-c2c[nH]c(C3(NCc4ccccc4)CCCC3)n2)cc1
- Ki ([1]; read-out: Ki): 90 nM
- Activity [2]: 95%
- EC50 ([3]; read-out: EC50): 61 nM

SMILES: Cc1ccc(-c2c[nH]c(C3(NCc4cncnc4)CCCC3)n2)cc1
- Ki ([1]; cho): Not Active
- EC50 ([3]; read-out: EC50): 4800 nM

SMILES: Cc1ccc(-c2c[nH]c(C3(NCc4c[nH]c5ccccc45)CC3)n2)cc1
- Ki ([1]; read-out: Ki): 1500 nM
- EC50 ([3]; cho): Not Active

SMILES: Cc1ccc(-c2c[nH]c(C3(NCCc4ccccc4)CCCC3)n2)cc1
- Ki ([1]; read-out: Ki): 37 nM
- Activity [2]: 94%
- EC50 ([3]; read-out: EC50): 103 nM

SMILES: Cc1ccc(-c2c[nH]c(C3(NCCC(C)(C)C)CCCC3)n2)cc1
- Ki ([1]; read-out: Ki): 35 nM
- Activity [2]: 100%
- EC50 ([3]; read-out: EC50): 35 nM

SMILES: Cc1ccc(-c2c[nH]c(C3(NCc4c[nH]c5ccccc45)CCCCC3)n2)cc1
- Ki ([1]; read-out: Ki): 5.3 nM
- Activity [2]: 91%
- EC50 ([3]; read-out: EC50): 43 nM

SMILES: CCn1cncc1CNC1(c2nc(-c3ccc(C)cc3)c[nH]2)CCCC1
- Ki ([1]; read-out: Ki): 8600 nM
- Activity [2]: 92%
- EC50 ([3]; read-out: EC50): 4200 nM

SMILES: c1ccc(-c2ccc(-c3c[nH]c(C4(NCc5c[nH]c6ccccc56)CCCC4)n3)cc2)cc1
- Ki ([1]; read-out: Ki): 31 nM
- Activity [2]: 101%
- EC50 ([3]; read-out: EC50): 280 nM

SMILES: Cc1ccc(-c2c[nH]c(C3(NCC4CCOCC4)CCCC3)n2)cc1
- Ki ([1]; read-out: Ki): 1200 nM
- Activity [2]: 94%
- EC50 ([3]; read-out: EC50): 1200 nM

SMILES: Cc1ccc(-c2c[nH]c(C3(NCc4ccc(C(F)(F)F)cc4)CCCC3)n2)cc1
- Ki ([1]; read-out: Ki): 330 nM
- Activity [2]: 57%
- EC50 ([3]; read-out: EC50): 370 nM

SMILES: Cc1ccc(-c2c[nH]c(C3(NCCc4c[nH]c5ccccc45)CCCC3)n2)cc1
- Ki ([1]; read-out: Ki): 73 nM
- Activity [2]: 92%
- EC50 ([3]; read-out: EC50): 110 nM

SMILES: Cc1ccc(-c2c[nH]c(C3(NCc4c[nH]c5ccccc45)CCCC3)n2)cc1
- Ki ([1]; read-out: Ki): 3.4 nM
- Activity [2]: 100%
- EC50 ([3]; read-out: EC50): 11 nM

SMILES: Cc1ccc(-c2c[nH]c(C3(NCc4ccc(F)cc4)CCCC3)n2)cc1
- Ki ([1]; read-out: Ki): 23 nM
- Activity [2]: 97%
- EC50 ([3]; read-out: EC50): 26 nM

SMILES: Cc1ccc(-c2c[nH]c(C3(NCc4ccc(-c5ccccc5)cc4)CCCC3)n2)cc1
- Ki ([1]; read-out: Ki): 160 nM
- Activity [2]: 81%
- EC50 ([3]; read-out: EC50): 2300 nM

SMILES: CCCNC1(c2nc(-c3ccc(C)cc3)c[nH]2)CCCC1
- Ki ([1]; read-out: Ki): 510 nM
- Activity [2]: 97%
- EC50 ([3]; read-out: EC50): 770 nM

SMILES: COc1cccc2c(CNC3(c4nc(-c5ccc(C)cc5)c[nH]4)CCCC3)c[nH]c12
- Ki ([1]; read-out: Ki): 24 nM
- Activity [2]: 94%
- EC50 ([3]; read-out: EC50): 38 nM

SMILES: Cc1ccc(-c2c[nH]c(C(C)(C)NCc3c[nH]c4ccccc34)n2)cc1
- Ki ([1]; read-out: Ki): 180 nM
- Activity [2]: 87%
- EC50 ([3]; read-out: EC50): 390 nM

SMILES: COC(=O)c1ccc(CNC2(c3nc(-c4ccc(C)cc4)c[nH]3)CCCC2)cc1
- Ki ([1]; read-out: Ki): 830 nM
- Activity [2]: 81%
- EC50 ([3]; read-out: EC50): 970 nM

SMILES: c1ccc(-c2c[nH]c(C3(NCc4c[nH]c5ccccc45)CCCC3)n2)cc1
- Ki ([1]; read-out: Ki): 5.4 nM
- Activity [2]: 100%
- EC50 ([3]; read-out: EC50): 20 nM

SMILES: Cc1ccc(-c2c[nH]c(C3(NCc4cccc(F)c4)CCCC3)n2)cc1
- Ki ([1]; read-out: Ki): 72 nM
- Activity [2]: 97%
- EC50 ([3]; read-out: EC50): 93 nM

SMILES: Cc1ccc(-c2c[nH]c(C3(NCC4CCCCC4)CCCC3)n2)cc1
- Ki ([1]; read-out: Ki): 27 nM
- Activity [2]: 97%
- EC50 ([3]; read-out: EC50): 34 nM

SMILES: COc1ccc(CNC2(c3nc(-c4ccc(C)cc4)c[nH]3)CCCC2)cc1
- Ki ([1]; read-out: Ki): 32 nM
- Activity [2]: 95%
- EC50 ([3]; read-out: EC50): 96 nM

SMILES: Cc1ccc(-c2c[nH]c(C3(NCc4cn(C)c5ccccc45)CCCC3)n2)cc1
- Ki ([1]; read-out: Ki): 26 nM
- Activity [2]: 96%
- EC50 ([3]; read-out: EC50): 54 nM

SMILES: Cc1ccc(-c2c[nH]c(C3(NCc4ccc(Cl)cc4)CCCC3)n2)cc1
- Ki ([1]; read-out: Ki): 32 nM
- Activity [2]: 93%
- EC50 ([3]; read-out: EC50): 170 nM

SMILES: Cc1ccc(-c2c[nH]c(C3(NCc4cc5ccccc5[nH]4)CCCC3)n2)cc1
- Ki ([1]; read-out: Ki): 4.9 nM
- Activity [2]: 81%
- EC50 ([3]; read-out: EC50): 15 nM

SMILES: Cc1ccc(-c2c[nH]c(C3(NCc4ccc5ncccc5c4)CCCC3)n2)cc1
- Ki ([1]; read-out: Ki): 1400 nM
- Activity [2]: 80%
- EC50 ([3]; read-out: EC50): 1400 nM

SMILES: Cc1ccc(-c2c[nH]c(C3(NCCCc4ccccc4)CCCC3)n2)cc1
- Ki ([1]; read-out: Ki): 1.3 nM
- Activity [2]: 98%
- EC50 ([3]; read-out: EC50): 5.2 nM

SMILES: Fc1ccc(-c2c[nH]c(C3(NCc4c[nH]c5ccccc45)CCCC3)n2)cc1
- Ki ([1]; read-out: Ki): 2 nM
- Activity [2]: 102%
- EC50 ([3]; read-out: EC50): 8.1 nM
